Measurements published in patent US8604047B2, “Method and composition for treating nodulocystic and conglobate acne vulgaris” (Elorac, Inc., priority 2010, dated 2013).

Key:
Assay type in all cases: in vivo, human
[1] = Oral administration to patients with conglobate acne (acne conglobata)
Description: Capsules containing 0.05 mg by weight of dutasteride are administered twice daily for 6 months to patients with conglobate acne.
A flavored oral solution incorporating a 0.75 mg by weight of dutasteride per every 5 ml of solution is administered to young patients with acne conglobata once daily for 24 weeks.
Tablets containing 0.1 mg by weight of finasteride are administered once daily for 12 weeks to patients with acne conglobata.

[2] = Topical cream applied to skin of patients with numerous acne papules, pustules, nodules and cysts; conditions: 5% dutasteride cream, once daily for 8 weeks, most patients
Description: A 5% dutasteride cream is prepared containing water, propylene glycol, bentonite, glycerol stearate, isopropyl myristate and cellulose gum, and applied once daily to the skin of patients with numerous acne papules, pustules, nodules and cysts for 8 weeks. After 8 weeks of such treatment, most patients will have at least a 20% decrease in the number of inflammatory acne lesions.

[3] = Daily oral or topical formulations of 5AR inhibitors in male patients with nodulocystic or conglobate acne
[4] = Oral administration to patients with nodulocystic acne; conditions: most patients
Description: Tablets containing 0.5 mg by weight of finasteride are administered once daily for 12 weeks to patients with nodulocystic acne.
Caplets containing 50 mg by weight of finasteride are administered once a week for 24 weeks to patients with severe nodulocystic acne.

[5] = Topical application by patients with nodulocystic acne
Source text: Patients with active nodulocystic acne apply 0.05% by weight finasteride prepared in an alcoholic gel containing 6% polyoxyethylene lauryl ether twice daily for 12 weeks.
An aqueous/alcohol solution containing 20% by weight finasteride is applied once daily by patients with nodulocystic acne.

SMILES	resolution of inflammatory nodules, cysts and sinus tracts ([1]; capsules 0.05 mg dutasteride, oral, twice daily for 6 months)	resolution of conglobate acne at end of treatment ([1]; oral solution 0.75 mg dutasteride per 5 ml, once daily for 24 weeks, young patients, some patients)	decrease in the number of inflammatory acne lesions [2] [%]	improvement of nodulocystic or conglobate acne [3]	reduction in acne nodules and cysts ([4]; caplets 50 mg finasteride, once a week for 24 weeks, severe nodulocystic acne)	activity of inflammatory acne lesions at end of treatment ([4]; tablets 0.5 mg finasteride, once daily for 12 weeks)	old acne lesions by end of treatment ([1]; tablets 0.1 mg finasteride, oral, once daily for 12 weeks)	new acne lesions by end of treatment ([1]; tablets 0.1 mg finasteride, oral, once daily for 12 weeks, most patients)	nodules and cysts versus before starting treatment ([5]; 0.05% by weight finasteride alcoholic gel with 6% polyoxyethylene lauryl ether, twice daily for 12 weeks)	improvement in appearance after twelve weeks ([5]; aqueous/alcohol solution 20% by weight finasteride, once daily, twelve weeks, many patients)	improvement observed after two weeks ([5]; aqueous/alcohol solution 20% by weight finasteride, once daily, two weeks, most patients)
C[C@]12C=CC(=O)N[C@@H]1CC[C@@H]1[C@@H]2CC[C@]2(C)[C@@H](C(=O)Nc3cc(C(F)(F)F)ccc3C(F)(F)F)CC[C@@H]12 [dutasteride]	resolution of some of their inflammatory nodules, cysts and sinus tracts	complete resolution of their conglobate acne	≥ 20	dramatic improvement							
CC(C)(C)NC(=O)[C@H]1CC[C@H]2[C@@H]3CC[C@H]4NC(=O)C=C[C@]4(C)[C@H]3CC[C@]12C [finasteride]				dramatic improvement	marked reduction in acne nodules and cysts	significant decrease in the activity of their inflammatory acne lesions	resolved with only minor scarring	very few new acne lesions	fewer nodules and cysts	dramatic improvement in their appearance	some improvement
